According to PubChem BioAssay AID2060620 (Molecular Pharmacology Branch, DTP, NCI, 2025):
Values joined by “and” are separate entries in the source; they are usually repeats but may differ in a detail not shown here. Equal entries are not always repeated. Blank lines part the entries; values can stand above or below the compound they belong to.

Test system: 328373-195-R-J1-PDC complex spheroids, viability % test/control
Assay: Anticancer human tumor 328373-195-R-J1-PDC patient-derived head and neck squamous carcinoma cell line growth inhibition [CLK]
Conditions: for viability, T/C: stronger effect = lower value
How it was run: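 Patient-derived tumor cells grown as complex spheroids with HUVEC endothelial cells and mesenchymal stem cells, treated with drug combinations. Concentrations descend in half-log steps from near clinical Cmax, or from 10 microM if Cmax unknown.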

[1] = curve of first compound, second compound 0.0316 µM
[2] = curve of first compound, second compound 0.1 µM
[3] = curve of first compound, second compound 0.316 µM
[4] = curve of first compound, second compound 1 µM
[5] = curve of first compound, second compound 3.16 µM
[6] = curve of first compound, second compound 10 µM
[7] = second compound 0.0316 µM, first compound 0.0316 µM
[8] = second compound 0.0316 µM, first compound 0.1 µM
[9] = second compound 0.0316 µM, first compound 0.316 µM
[10] = second compound 0.0316 µM, first compound 1 µM
[11] = second compound 0.0316 µM, first compound 3.16 µM
[12] = second compound 0.0316 µM, first compound 10 µM
[13] = second compound 0.1 µM, first compound 0.0316 µM
[14] = second compound 0.1 µM, first compound 0.1 µM
[15] = second compound 0.1 µM, first compound 0.316 µM
[16] = second compound 0.1 µM, first compound 1 µM
[17] = second compound 0.1 µM, first compound 3.16 µM
[18] = second compound 0.1 µM, first compound 10 µM
[19] = second compound 0.316 µM, first compound 0.0316 µM
[20] = second compound 0.316 µM, first compound 0.1 µM
[21] = second compound 0.316 µM, first compound 0.316 µM
[22] = second compound 0.316 µM, first compound 1 µM
[23] = second compound 0.316 µM, first compound 3.16 µM
[24] = second compound 0.316 µM, first compound 10 µM
[25] = second compound 1 µM, first compound 0.0316 µM
[26] = second compound 1 µM, first compound 0.1 µM
[27] = second compound 1 µM, first compound 0.316 µM
[28] = second compound 1 µM, first compound 1 µM
[29] = second compound 1 µM, first compound 3.16 µM
[30] = second compound 1 µM, first compound 10 µM
[31] = second compound 3.16 µM, first compound 0.0316 µM
[32] = second compound 3.16 µM, first compound 0.1 µM
[33] = second compound 3.16 µM, first compound 0.316 µM
[34] = second compound 3.16 µM, first compound 1 µM
[35] = second compound 3.16 µM, first compound 3.16 µM
[36] = second compound 3.16 µM, first compound 10 µM
[37] = second compound 10 µM, first compound 0.0316 µM
[38] = second compound 10 µM, first compound 0.1 µM
[39] = second compound 10 µM, first compound 0.316 µM
[40] = second compound 10 µM, first compound 1 µM
[41] = second compound 10 µM, first compound 3.16 µM
[42] = second compound 10 µM, first compound 10 µM
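Further: spheroids exposed to the agents for 7 days.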

SMILES: COC1C=CCC(C)C(C)S(=O)(=O)NC(=O)c2ccc3c(c2)N(CC2CCC21)CC1(CCCc2cc(Cl)ccc21)CO3 (stereo not given) + CNC(=O)c1ccc(Nc2nc(OC3CCCC3)c3c(-c4ccc5nc(C)oc5c4)c[nH]c3n2)c(OC)c1
IC50 [1]: 4280 nM
IC50 [2]: < 31.6 nM
IC50 [3]: < 31.6 nM
IC50 [4]: < 31.6 nM
IC50 [5]: < 31.6 nM
IC50 [6]: < 31.6 nM
viability, T/C [7]: 56.2%
viability, T/C [8]: 70.6%
viability, T/C [9]: 81.3%
viability, T/C [10]: 83%
viability, T/C [11]: 66.2%
viability, T/C [12]: 4.89%
viability, T/C [13]: 13%
viability, T/C [14]: 13.1%
viability, T/C [15]: 12.5%
viability, T/C [16]: 15.2%
viability, T/C [17]: 9.14%
viability, T/C [18]: 2.12%
viability, T/C [19]: 12.3%
viability, T/C [20]: 11.6%
viability, T/C [21]: 11.9%
viability, T/C [22]: 8.54%
viability, T/C [23]: 6.49%
viability, T/C [24]: 5.35%
viability, T/C [25]: 12.7%
viability, T/C [26]: 11.2%
viability, T/C [27]: 9.61%
viability, T/C [28]: 8.8%
viability, T/C [29]: 6.45%
viability, T/C [30]: 5.97%
viability, T/C [31]: 11.9%
viability, T/C [32]: 12.1%
viability, T/C [33]: 10.3%
viability, T/C [34]: 7.26%
viability, T/C [35]: 6.87%
viability, T/C [36]: 11.6%
viability, T/C [37]: 13.3%
viability, T/C [38]: 13.5%
viability, T/C [39]: 10.2%
viability, T/C [40]: 8.44%
viability, T/C [41]: 8.98%
viability, T/C [42]: 9.48%

SMILES: O=C(c1cc(Cc2n[nH]c(=O)c3ccccc23)ccc1F)N1CCN(C(=O)C2CC2)CC1 + CN1CCN(c2cc(C(=O)Nc3cc4cc(-c5cnn(C)c5)ccc4cn3)ccn2)CC1
IC50 [1]: > 10000 nM
IC50 [2]: > 10000 nM
IC50 [3]: < 31.6 nM
IC50 [4]: < 31.6 nM
IC50 [5]: < 31.6 nM
IC50 [6]: < 31.6 nM
viability, T/C [7]: 92.9%
viability, T/C [8]: 91%
viability, T/C [9]: 98.9%
viability, T/C [10]: 92.7%
viability, T/C [11]: 90.4%
viability, T/C [12]: 78.5%
viability, T/C [13]: 76.8%
viability, T/C [14]: 81.4%
viability, T/C [15]: 86.4%
viability, T/C [16]: 83.9%
viability, T/C [17]: 79%
viability, T/C [18]: 57.1%
viability, T/C [19]: 23.5%
viability, T/C [20]: 29.2%
viability, T/C [21]: 23.1%
viability, T/C [22]: 27.4%
viability, T/C [23]: 24.4%
viability, T/C [24]: 17.1%
viability, T/C [25]: 0.23%
viability, T/C [26]: 0.16%
viability, T/C [27]: 1.14%
viability, T/C [28]: 0.33%
viability, T/C [29]: 2.95%
viability, T/C [30]: 2.82%
viability, T/C [31]: 2.14%
viability, T/C [32]: 2.06%
viability, T/C [33]: 2.2%
viability, T/C [34]: 1.77%
viability, T/C [35]: 3.1%
viability, T/C [36]: 1.47%
viability, T/C [37]: 0.09%
viability, T/C [38]: 3.55%
viability, T/C [39]: 1.83%
viability, T/C [40]: 0.13%
viability, T/C [41]: 3.63%
viability, T/C [42]: 0.27%

SMILES: Nc1ccn(C2OC(CO)C(O)C2(F)F)c(=O)n1 (stereo not given) + CNC(=O)c1ccc(Nc2nc(OC3CCCC3)c3c(-c4ccc5nc(C)oc5c4)c[nH]c3n2)c(OC)c1
IC50 [1]: < 31.6 nM
IC50 [2]: < 31.6 nM
IC50 [3]: < 31.6 nM
IC50 [4]: < 31.6 nM
IC50 [5]: < 31.6 nM
IC50 [6]: < 31.6 nM
viability, T/C [7]: 2.44%
viability, T/C [8]: 1.85%
viability, T/C [9]: 3.64%
viability, T/C [10]: 2.74%
viability, T/C [11]: 2.63%
viability, T/C [12]: 1.95%
viability, T/C [13]: 3.4%
viability, T/C [14]: 1.85%
viability, T/C [15]: 2.02%
viability, T/C [16]: 2.08%
viability, T/C [17]: 2.83%
viability, T/C [18]: 4.18%
viability, T/C [19]: 3.23%
viability, T/C [20]: 2.68%
viability, T/C [21]: 4.06%
viability, T/C [22]: 2.46%
viability, T/C [23]: 2.95%
viability, T/C [24]: 1.84%
viability, T/C [25]: 4.36%
viability, T/C [26]: 1.86%
viability, T/C [27]: 1.79%
viability, T/C [28]: 2.35%
viability, T/C [29]: 3.18%
viability, T/C [30]: 3.19%
viability, T/C [31]: 5.21%
viability, T/C [32]: 3.42%
viability, T/C [33]: 4.01%
viability, T/C [34]: 2.03%
viability, T/C [35]: 2.01%
viability, T/C [36]: 1.88%
viability, T/C [37]: 6.95%
viability, T/C [38]: 3.09%
viability, T/C [39]: 3.18%
viability, T/C [40]: 2.49%
viability, T/C [41]: 2.14%
viability, T/C [42]: 1.82%

Further lines, with some results ahead:

IC50 [1]: < 9.49 nM
IC50 [2]: < 9.49 nM
IC50 [3]: < 9.49 nM
IC50 [4]: < 9.49 nM
IC50 [5]: < 9.49 nM
IC50 [6]: < 9.49 nM
SMILES: NC(=O)C(=Cn1cnc(-c2cc(C(F)(F)F)cc(C(F)(F)F)c2)n1)c1cncnc1 + CNC(=O)c1ccc(Nc2nc(OC3CCCC3)c3c(-c4ccc5nc(C)oc5c4)c[nH]c3n2)c(OC)c1
viability, T/C (second compound 0.0316 µM, first compound 0.00949 µM): 38.7%
viability, T/C (second compound 0.0316 µM, first compound 0.03 µM): 20.8%
viability, T/C (second compound 0.0316 µM, first compound 0.0949 µM): 0.53%
viability, T/C (second compound 0.0316 µM, first compound 0.3 µM): 0.2%
viability, T/C (second compound 0.0316 µM, first compound 0.949 µM): 0.1%
viability, T/C (second compound 0.0316 µM, first compound 3 µM): 0.07%
viability, T/C (second compound 0.1 µM, first compound 0.00949 µM): 15.9%
viability, T/C (second compound 0.1 µM, first compound 0.03 µM): 3.9%
viability, T/C (second compound 0.1 µM, first compound 0.0949 µM): 0.26%
viability, T/C (second compound 0.1 µM, first compound 0.3 µM): 0.16%
viability, T/C (second compound 0.1 µM, first compound 0.949 µM): 0.11%
viability, T/C (second compound 0.1 µM, first compound 3 µM): 0.06%
viability, T/C (second compound 0.316 µM, first compound 0.00949 µM): 6.88%
viability, T/C (second compound 0.316 µM, first compound 0.03 µM): 2.56%
viability, T/C (second compound 0.316 µM, first compound 0.0949 µM): 0.37%
viability, T/C (second compound 0.316 µM, first compound 0.3 µM): 0.09%
viability, T/C (second compound 0.316 µM, first compound 0.949 µM): 0.1%
viability, T/C (second compound 0.316 µM, first compound 3 µM): 1.78%
viability, T/C (second compound 1 µM, first compound 0.00949 µM): 5.63%
viability, T/C (second compound 1 µM, first compound 0.03 µM): 1.81%
viability, T/C (second compound 1 µM, first compound 0.0949 µM): 0.17%
viability, T/C (second compound 1 µM, first compound 0.3 µM): 0.06%
viability, T/C (second compound 1 µM, first compound 0.949 µM): 0.08%
viability, T/C (second compound 1 µM, first compound 3 µM): 0.06%
viability, T/C (second compound 3.16 µM, first compound 0.00949 µM): 5.68%
viability, T/C (second compound 3.16 µM, first compound 0.03 µM): 1.86%
viability, T/C (second compound 3.16 µM, first compound 0.0949 µM): 0.15%
viability, T/C (second compound 3.16 µM, first compound 0.3 µM): 0.15%
viability, T/C (second compound 3.16 µM, first compound 0.949 µM): 1.8%
viability, T/C (second compound 3.16 µM, first compound 3 µM): 0.15%
viability, T/C (second compound 10 µM, first compound 0.00949 µM): 5.83%
viability, T/C (second compound 10 µM, first compound 0.03 µM): 2.16%
viability, T/C (second compound 10 µM, first compound 0.0949 µM): 0.18%
viability, T/C (second compound 10 µM, first compound 0.3 µM): 0.11%
viability, T/C (second compound 10 µM, first compound 0.949 µM): 0.18%
viability, T/C (second compound 10 µM, first compound 3 µM): 0.15%

IC50 (curve of compound): > 100 nM
SMILES: Cn1ncnc1[C@H]1c2n[nH]c(=O)c3cc(F)cc(c23)N[C@@H]1c1ccc(F)cc1
viability, T/C (compound 0.000316 µM): 98.5% and 113%
viability, T/C (compound 0.001 µM): 72.2% and 90.1%
viability, T/C (compound 0.00316 µM): 90.6% and 93.4%
viability, T/C (compound 0.01 µM): 84.6% and 92.9%
viability, T/C (compound 0.0316 µM): 95.3% and 107%
viability, T/C (compound 0.1 µM): 73% and 77.7%
